# Test results published in patent US11701336B2, “Method of determining composition effective for treating diabetes” (priority 2015, dated 2023).
# How the values were obtained:
# diabetic patients [1] = experiment: Cancer in patients during diabetes mellitus treatment (survey and case reports); format: in vivo, human; settings: person
# Source text: On the other hand, it is widely known that the insulin itself may increase the risk of the cancer and many cancer patients can be found in the patients of the diabetes mellitus.
# [2] = confirmed by manufacturers; cited from earlier work
# diabetic patients [3] = experiment: HbA1c (glycated hemoglobin) of the patient under the prescription; format: in vivo, human; settings: person; May 17, 2016, only the new drug (DPP4 inhibitor), before metformin+BCAA
# Source text: (1) Step to measure HbA1c and lactate levels in patients
# (3) Step to measure changes in HbA1c and lactate levels after administration of the composition to the patient,
# diabetic patients [4] = experiment: Blood glucose of the patient (casual, postprandial, glycemic control); format: in vivo, human
# diabetic patients [5] = experiment: Side effects and clinical course, opinion of the doctor; format: in vivo, human; settings: person; 4 mg antihypertensive diuretic
# Procedure: For each prescription example, the glycemic status of the patient that is dependent on the administered active components and the component amount is measured using HbA1c (glycated hemoglobin) along with changes in the lactic acid value, and opinion of the doctor is recorded together with the change in the values.
structure (smiles),measurement,setting,value
N#C[C@@H]1CCCN1C(=O)CNC12CC3CC(CC(O)(C3)C1)C2 [Equa],Cancer developed during diabetes mellitus treatment,diabetic patients [1]; Case (10),a bowel cancer was developed
O=C(O)[C@H](CC(=O)N1C[C@H]2CCCC[C@H]2C1)Cc1ccccc1 [GLUFAST],Lactic acidosis,[2],do not cause lactic acidosis
"N[C@@H](CC(=O)N1CCn2c(nnc2C(F)(F)F)C1)Cc1cc(F)c(F)cc1F [JANUVIA, sitagliptin phosphate hydrate]",Cancer developed during diabetes mellitus treatment,"diabetic patients [1]; Case (13), treated from 2017, January 2019",A bone cancer was found
Cc1cc(N2CCN([C@@H]3CN[C@H](C(=O)N4CCSC4)C3)CC2)n(-c2ccccc2)n1 [TENELIA],Cancer developed during diabetes mellitus treatment,"diabetic patients [1]; Case (15), dialysis, used until October 2017, April 2019",A lung cancer was developed
CC#CCn1c(N2CCC[C@@H](N)C2)nc2c1c(=O)n(Cc1nc(C)c3ccccc3n1)c(=O)n2C [Trazenta],Cancer developed during diabetes mellitus treatment,"diabetic patients [1]; Case (9), used until October 2018",A vesical cancer was developed
same,Cancer developed during diabetes mellitus treatment,"diabetic patients [1]; Case (11), 5 mg, March 2019",A liver cancer was developed
Cn1c(=O)cc(N2CCC[C@@H](N)C2)n(Cc2cc(F)ccc2C#N)c1=O [Zafatek],HbA1c,diabetic patients [3],5.6%
same,postprandial blood glucose,"diabetic patients [4]; person, May 9, 2016, before metformin+BCAA was started",246 mg/dL
NS(=O)(=O)c1cc2c(cc1Cl)NC(C(Cl)Cl)NS2(=O)=O (stereo not drawn) [fluitran],Effect on the condition of diabetes mellitus,diabetic patients [5],worsened the condition of diabetes mellitus
"CN(C)C(=N)NC(=N)N.Cl [metformin, metformin hydrochloride]",Blood sugar level,"diabetic patients [4]; Case (19), metformin 250 mg after HD, as of August 2020",stable
same,Lung cancer by PET and MRI,"diabetic patients [1]; Case (19), metformin 250 mg after HD from May 2019, after radiation therapy, April 2020",reduction of lung cancer was maintained and there was no metastasis
CC(C)[C@H]1CC[C@H](C(=O)N[C@H](Cc2ccccc2)C(=O)O)CC1 [nateglinide],Lactic acidosis,[2],do not cause lactic acidosis
